From patent publication US7906334B2, “Method for reproducing conifers by somatic embryogenesis using lactose as a carbon source” (Cellfor Inc., priority 2003, dated 2011)

Legend:
[1] = tested on: Douglas fir embryogenic tissue, cell line DF-2; assay: Effects of carbohydrates on liquid maintenance of Douglas fir embryogenic tissue; type: cell-based, Pseudotsuga menziesii (Douglas fir); settings: 3 weeks suspension maintenance/bulking-up, 0.5% galactose, 1% lactose, 0.5% mannitol
Description: The culture medium for Douglas fir was TX medium (see Table A) with the following additives: glutamine 100 mg., Casein hydrolysate 100 mg., and pH 5.8. The following compounds were added into the basal medium for Douglas fir somatic embryo development at different stages: • 1) Induction medium: 18 μM 2,4-D and 9 μM BA, phytagel 0.28%, sucrose 1% • 2) Solid maintenance medium: 9 μM 2,4-D and 4.5 μM BA, phytagel 0.28%, sucrose 1%. • 3) Liquid maintenance and bulking-up medium: 9 μM 2,4-D and 4.5 μM BA, different carbon sources for experiments. • 4) Liquid pre-treatment medium: 20 (first week) or 30 μM ABA (second week), 10% PEG4000 (first week) or PEG1500 (second week), different carbon sources as described in examples below. • 5) Solid maturation media: TX (Table A) plus 0.02% NH4NO3 • Medium I. 40 μM ABA, 10% PEG 1500, maltose 2.5%, phytagel 0.6% • Medium II. 60 μM ABA, 10% PEG1500, maltose 2.5% and sucrose 1%, phytagel 0.8% • Medium III. 70 μM ABA, 6% PEG1500, sucrose 6%, phytagel 1%.
Embryogenic tissue was induced from immature zygotic embryos. The cones and seeds were surface-sterilised as described for pines, and embryos were dissected out from megagametophytes. The embryos, with the attachment of suspensors to their megagametophytes, were placed on the surface of induction medium. The culture was kept in darkness at 23° C. Embryogenic tissue was sub-cultured once every two weeks onto solid maintenance medium.
Embryogenic tissue of Douglas fir was collected from solid maintenance culture and one gram of tissue was transferred into a 200 ml flask containing 50 ml TX (see Table A) liquid maintenance medium. The liquid maintenance medium was supplied with different sugars (Table 8).
The tissue was drained, weighed and sub-cultured once per week. During a culture period of three weeks, the highest tissue growth was found in the culture with glucose as the major carbon source. The media containing sucrose, maltose and galactose also supported a fast tissue growth. With these latter sugars, tissue increased to 68 to 100 fold in three weeks. Tissue grew little in the media containing lactose or mannitol. […] Similar results were obtained within two cell lines, DF-7A and DF-2.

[2] = tested on: radiata pine megagametophytes containing immature zygotic embryos; assay: Effect of carbon source on induction of radiata pine; type: cell-based, Pinus radiata (radiata pine)
Description: Female gametophytes containing immature zygotic embryos were used as explants. The cones were surface sterilised in 10% bleach solution for 15 min. They were rinsed 3 times with sterile water, air dried and stored in polyethylene bags at 4° C. until used. Seeds were sterilised in 3% hydrogen peroxide containing 0.1% Tween 20 and rinsed in sterile deionized water. Megagametophytes containing the immature embryos were plated on MSG (standard radiata pine medium containing sucrose, Table B) and on TX medium (Table A) supplemented with 2.2 mg/l 2,4-D, 1 mg/l BA and 0.3% Phytagel and containing 1.5% galactose and 0.5% sucrose. Casein hydrolysate was reduced to 1000 mg/l (TXR medium).
Cultures were maintained on the two media by subculturing the embryogenic tissue every 10 to 14 days to fresh media. All cultures were incubated at 23° C. in the dark. Suspension cultures were initiated as 2 g of tissue were introduced to 50 ml of TXR liquid medium containing 1.0% sucrose. […]
One ml of TXR medium containing 0.1 g tissue consisting of early stage somatic embryos was plated on modified ½ LV maturation medium (Table C) in which glutamine was reduced to 500 mg/l and casein hydrolysate to 1000 mg/l. […] Twelve to fourteen weeks later, mature somatic embryos were counted and treatments were evaluated based on the number of somatic embryos per gram fresh weight.

[3] = tested on: loblolly pine lines LP1 and LP3; assay: Effect of galactose and galactose-containing sugars during proliferation and prematuration on SE yield; type: cell-based, Pinus taeda (loblolly pine); parameters: Amount of tissue at the end of the preculture II stage: unit not given here; settings: for # SE/g FW / Amount of tissue at the end of the preculture II stage: 1% sucrose, 1.5% maltose, 1.5% lactose or 0.75% galactose
Description: The finding that loblolly pine cultures were capable of utilising galactose is unique. In order to further investigate these phenomenon two lines, LP1 and LP3, were cultured on semi-solid TX medium containing 1.0% lactose and 0.5% sucrose. Cultures were maintained by subculturing the embryogenic tissue every 10 to 14 days to fresh media. All cultures were incubated at 23° C. in the dark. Suspension cultures were initiated as described in Example 3, however, TX medium was supplemented with either 1% sucrose, 1.5% maltose, 1.5% lactose, or 0.75% galactose. These cultures were maintained in liquid media for 4 weeks by weekly transfers to fresh maintenance or prematuration media. After the 4˜week period, 1 ml of the liquid medium containing 0.1 g of tissue consisting of early stage somatic embryos was plated on each […] plates containing ½ LV maturation medium. This medium contained 120 μM ABA and 6.0% sucrose and 1% Phytagel. Eight to ten weeks later, mature somatic embryos were counted and treatments were evaluated based on the number of somatic embryos per gram fresh weight (Table 5).

[4] = tested on: radiata pine lines RP1, RP2, RP3, and RP4; assay: Effect of carbon source on somatic embryo development of radiata pine in liquid cultures; type: cell-based, Pinus radiata (radiata pine); settings: for # SE/g FW ± sd / Grams FW at the end of proliferation stage (from 1.5 g): 1.0% sucrose or 3.0% galactose in TXR prematuration media I and II; for tissue morphology: tissue induced and maintained on MSG sucrose or TXR galactose
From the text: Tissue induced on MSG containing sucrose was further maintained on MSG sucrose medium, and tissue induced on TXR galactose was maintained on TXR medium containing galactose as described in Example 6. The tissue morphology of the lines induced on galactose was different from that induced on sucrose. […] The lines used in this study were RP1, RP2, RP3, and RP4.
Suspension cultures were initiated as described in Example 6. These cultures were maintained in liquid media for 20-28 days by transfers to fresh maintenance medium every 10 to 14 days. Up to five fold increase of the tissue was estimated at the end of each 10 to 14 day transfer.
In order to study the effect of galactose on embryo development after the proliferation stage, 2 g tissue was further transferred to 250 ml flasks, containing 50 ml of TXR prematuration medium I supplemented with either 1.0% sucrose or 3.0% galactose. As with loblolly pine cultures, prematuration I requires reduction of hormones either by reducing the auxin and cytokinin concentrations to optimally about 1/20 of the concentration of proliferation step, or by adding charcoal at about 0.01 to 1%, or a combination of both.
After the 10-14 day period, 1.5 g tissue was transferred to 250 ml flasks containing 50 ml TXR prematuration medium II to which either 1.0% sucrose or 3.0% galactose and 90 μM ABA were added.
Early stage somatic embryos were collected after 10 to 14 days and matured on modified ½ LV maturation medium as described in Example 6.

[5] = tested on: Douglas fir embryogenic tissue; assay: Medium osmolarity before and after one-week tissue inoculation; type: cell-based, Pseudotsuga menziesii (Douglas fir); settings: medium with 0.5% galactose, 1% lactose, 0.5% mannitol or 0.5% glucose
From the text: More change of medium osmolarity occurred during week 2 than week 1. The medium osmolarity changed little when lactose or mannitol was used in the media.

[6] = tested on: Suspension cultures of loblolly lines LP1, LP2, LP3, LP4 and LP5; assay: Effect of carbon source on liquid maintenance: growth rate and yield of somatic embryos; type: cell-based, Pinus taeda (loblolly pine); settings: 1% sucrose; for # SE/g FW ± sd: 1.5% maltose or 1.5% lactose for 4 weeks in liquid, then 8-10 weeks on 1/2 LV maturation medium; for Average amount of tissue produced after 4 weeks in liquid (FW g): 1.5% maltose or 1.5% lactose in maintenance and prematuration I and II, started with 2 g
Description: Suspension cultures of loblolly lines LP1, LP2, LP3, LP4 and LP5 were started with 2 g of tissue introduced to 50 ml of TX liquid medium containing different sugars—1% sucrose, 1.5% maltose, or 1.5% lactose. These cultures were maintained in the same liquid media for 2 weeks by weekly transfers to fresh maintenance medium containing the above sugars. Then, 2 g of tissue produced in each maintenance medium was transferred to prematuration media I, containing the same carbon source as the maintenance media. After one week, 1.5 g of tissue from each prematuration medium I was transferred to prematuration media II containing the same sugars. After the 4 week period in liquid media, early stage somatic embryos were collected and plated on ½ LV maturation medium containing 120 μM ABA and 6.0% sucrose and 1% Phytagel. Eight to ten weeks later, mature somatic embryos were counted and treatments were evaluated based on the number of somatic embryos per gram fresh weight (SE/g FW). Table 2 summarises the tissue yield at the end of the 4-week period and the number of mature somatic embryos produced for each line.

[7] = tested on: loblolly pine embryogenic tissue; assay: Effect of carbon source on solid maintenance of loblolly pine; type: cell-based, Pinus taeda (loblolly pine); settings: semi-solid TX medium; 1% sucrose, or 1.5% lactose and 0.025% glucose
Description: Tissue induced on sucrose from Example 1 was further maintained on the semi-solid TX medium containing 1% sucrose, and tissue induced on lactose was maintained on semi-solid TX medium containing 1.5% lactose and 0.025% glucose. The tissue morphology of the lines induced on lactose was different from the ones induced on sucrose. […] In order to further increase the proliferation rate, 0.5% sucrose was added to the TX 1.5% lactose-containing medium in place of 0.025% glucose. This medium provided a reasonable bulk-up rate, and growth of embryos was more synchronized than in the 1% sucrose medium.

[8] = additional glucose 0%, 0.5% glucose, 1% sucrose, 1% maltose

Structure (SMILES) | Tissue growth (fold, mean ± SD) [1, 8] [fold] | Tissue growth (fold, mean ± SD) ([1]; additional glucose 0.025%) [fold] | Induction success, galactose compared with sucrose medium ([2]; galactose as carbon source) | subsequent yields of mature embryos, galactose compared with sucrose medium ([2]; tissues induced on galactose) | # SE/g FW ([3]; line LP1) [SE/g FW] | Amount of tissue at the end of the preculture II stage ([3]; line LP1) | # SE/g FW ([3]; line LP3) [SE/g FW] | Amount of tissue at the end of the preculture II stage ([3]; line LP3) | # SE/g FW ± sd [4] [SE/g FW] | Grams FW at the end of proliferation stage (from 1.5 g) [4] [g] | Tissue growth increase ([4]; galactose as carbon source) | number of mature somatic embryos at the end of maturation ([4]; galactose as carbon source) | tissue morphology [4] | Osmolarity before inoculation (mmol/kg, mean ± SD) [5] [mmol/kg] | # SE/g FW ± sd [6] [SE/g FW] | Average amount of tissue produced after 4 weeks in liquid (FW g) [6] [g] | embryos produced ([3]; line LP1, as stated in the text) [embryos] | amount of tissue at the end of the 4 week-liquid period ([3]; line LP3, sucrose as sole carbon source) [g] | tissue morphology [7]
O=C[C@H](O)[C@@H](O)[C@@H](O)[C@H](O)CO [Galactose] | 68.64 ± 4.58 | 97.02 ± 2.67 | greater than three times higher | almost double | 216 ± 8 | 59.45 | 172 ± 5 | 8.65 | 405.3 ± 10 | 9.5 ± 2 | more than 5 times | doubled | more early stage immature embryos and a limited amount of suspensor type of surrounding tissue | 71.67 ± 1.15 |  |  |  |  | 
OC[C@H]1O[C@H](O[C@H]2[C@H](O)[C@@H](O)[C@H](O)O[C@@H]2CO)[C@H](O)[C@@H](O)[C@@H]1O [Maltose, maltose] | 85.01 ± 1.71 |  |  |  | 106 ± 4 | 232.18 | 160 ± 5 | 118.22 |  |  |  |  |  |  | 209 ± 28 | 204.45 |  |  | 
OC[C@H]1O[C@@](CO)(O[C@H]2O[C@H](CO)[C@@H](O)[C@H](O)[C@H]2O)[C@@H](O)[C@@H]1O [Sucrose, sucrose] | 100.94 ± 12.0 |  |  |  | 11 ± 3 | 121.22 | 100 ± 6 | 1278.18 | 213.3 ± 6 | 11.05 ± 2 |  |  | predominantly suspensor type tissue and very few embryos |  | 126 ± 20 | 592.06 | 11 | 1278.18 | Predominantly suspensor type tissue and very few embryos
OC[C@@H](O)[C@@H](O)[C@H](O)[C@H](O)CO [mannitol, reference compound] | 1.60 ± 0.13 | 3.34 ± 0.22 |  |  |  |  |  |  |  |  |  |  |  | 76 ± 1 |  |  |  |  | 
